Reference: US20100298300A1, “TRIAZOLOPYRAZINE COMPOUNDS USEFUL FOR THE TREATMENT OF DEGENERATIVE & INFLAMMATORY DISEASES” (priority 2006, published 2010)
pEC50, pIC50: −log10 of the molar value.

Columns and labels:
[1] = system: MMP1 expression by activated primary synovial fibroblasts; assay: 'MMP assay': MMP1 expression by complex trigger activated synovial fibroblasts (MMP1 ELISA); assay type: cell-based; conditions: Homo sapiens, Fibroblast; Table 3; RASFs, complex trigger, 48 hrs, MMP1 ELISA
MAPKAPK5 = target: T1, MAPKAPK5 (Homo sapiens, UniProt Q8IW41); assay: MAPKAP-K5 assay (FlashPlate kinase assay)
T1 sequence (Q8IW41 1-471 isoform Q8IW41-2): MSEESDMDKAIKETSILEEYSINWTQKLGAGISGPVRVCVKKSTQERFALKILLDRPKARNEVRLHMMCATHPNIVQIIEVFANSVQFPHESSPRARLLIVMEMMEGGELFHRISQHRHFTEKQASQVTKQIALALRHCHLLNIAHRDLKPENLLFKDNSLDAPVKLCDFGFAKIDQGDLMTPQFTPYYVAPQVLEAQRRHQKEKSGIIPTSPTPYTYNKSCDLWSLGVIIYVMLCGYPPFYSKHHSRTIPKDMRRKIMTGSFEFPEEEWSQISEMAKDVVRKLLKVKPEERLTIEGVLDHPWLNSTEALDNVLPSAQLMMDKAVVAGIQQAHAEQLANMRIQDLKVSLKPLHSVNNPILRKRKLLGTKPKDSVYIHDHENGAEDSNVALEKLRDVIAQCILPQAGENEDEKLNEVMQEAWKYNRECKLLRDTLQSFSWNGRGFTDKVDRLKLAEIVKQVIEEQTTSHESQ
Protocol: MAPKAP-K5 reactions are performed in FlashPlate format using 0.1 or 0.2 μCi 33P-ATP; 0.6 μM ATP; 1 mU MAPKAP-K5; 3 μM MAPKAP-K5 peptide substrate, incubated at room temperature for 30 minutes.
The MAPKAP-K5 kinase reaction is performed in a 384 well polypropylene plate (Matrix Technologies) and then transferred to a streptavidin-coated 384 well flashplate (Perkin-Elmer).
To wells containing 2 μL test compound or standard inhibitor, 13 μL Enzyme mix or diluent are added using a Hydra (Robbins Scientific).
Reactions are started by addition of 10 μL of [2,5×] substrate cocktail using a Multidrop (Thermo-Labsystems), to give final concentrations in the assay of:
Plates are incubated at room temperature for 30 minutes.
Reactions are terminated by the addition of 25 μL EDTA (50 mM) to each well using a Micro-fill (Biotek).
Reactions are transferred to a streptavidin-coated flashplate using a Zymark robotic system. Plates are incubated for 60 minutes at room temperature.
All wells are washed 3 times with 100 μl phosphate buffered saline using a Tecan plate washer.
Radioactivity is determined by scintillation counting of the flashplate (empty wells) on a Packard TopCount.
Enzyme Mix: • Enzyme • 50 mM Tris Hcl (pH 7.5) • 0.1 mM EGTA • 2 mM DTT • 1 mg/mL BSA
Reaction Buffer: • 50 mM Tris Hcl (pH 7.5) • 0.1 mM EGTA • 10 mM Magnesium acetate • 2 mM DTT

[2] = system: TNFα release by human PBMCs; assay: Cytokine release by LPS stimulated human PBMCs (TNFα ELISA); assay type: cell-based; conditions: PBMC, 24 h, Table 5, LPS 1 μg/mL

Compound	pEC50 [1]	pIC50 (MAPKAPK5)	pEC50 [2]
CC(C)N1CCC(c2ccc(Nc3ncc(-c4csc(C(N)=O)c4)n4ncnc34)cc2)CC1 [Compound 89, 4-{8-[4-(1-Isopropylpiperidin-4-yl)phenylamino]-[1,2,4]triazolo[1,5-a]pyrazin-5-yl}-thiophene-2-carboxylic acid amide]	6.00 to 6.30	7.00 to 9.00	< 6.00
O=C1NCc2cc(-c3cnc(Nc4ccc(N5CCOCC5)cc4)c4ncnn34)sc21 [Compound 113]	6.30 to 7.00	6.00 to 6.30	< 6.00
O=C1NCc2cc(-c3cnc(Nc4ccc(F)cc4)c4ncnn34)ccc21 [Compound 117]	6.30 to 7.00	< 6.00	< 6.00
CN1CCN(c2ccc(Nc3ncc(-c4cn[nH]c4)n4ncnc34)cc2)CC1 [Compound 2]	< 6.00	< 6.00	< 6.00
FC(F)(F)CN1CCN(c2ccc(Nc3ncc(-c4cn[nH]c4)n4ncnc34)cc2)CC1 [Compound 45]	< 6.00	< 6.00	< 6.00
NC(=O)c1ccc(-c2cnc(Nc3ccc(N4CCOCC4)cc3)c3ncnn23)s1 [Compound 13]	6.30 to 7.00	< 6.00	< 6.00
NC(=O)c1nc(-c2cnc(Nc3ccc(N4CCOCC4)cc3)c3ncnn23)cs1 [Compound 61, 4-[8-(4-Morpholin-4-ylphenylamino)-[1,2,4]triazolo[1,5-a]pyrazin-5-yl]thiazole-2-carboxylic acid amide]	6.00 to 6.30	< 6.00	< 6.00
c1nc2c(Nc3ccc(N4CCNCC4)cc3)ncc(-c3cn[nH]c3)n2n1 [Compound 40]	< 6.00	6.00 to 6.30	6.00 to 6.30
c1nc2c(Nc3ccc(N4CCOCC4)cc3)ncc(-c3ccc4[nH]ncc4c3)n2n1 [Compound 104]	< 6.00	< 6.00	< 6.00
NC(=O)c1cc(-c2cnc(Nc3ccc(N4CCNCC4)cc3)c3ncnn23)cs1 [Compound 27]	6.00 to 6.30	6.30 to 7.00	< 6.00
